21 compounds from PubChem BioAssay AID1259408 (Genetic Toxicology Data Bank (GENE-TOX), 2018) can be followed below.

The data set concerns GENE-TOX genotoxicity assays, various organisms and cells. The data set is described as follows: GENE-TOX mutagenicity studies. To be noted: for call: Assay Type: In vivo carcinogenicity studies.
Where [1] appears, read: Species/Cell Type: Salmonella typhimurium (one or more of the five standard strains: TA98, TA100, TA1535, TA1537, and TA1538), Assay Type: Histidine reverse gene mutation, Ames assay, Assay Code: SAL+, Evaluation Type: Evaluation A (Pre-1980).
[2] abbreviates: Species/Cell Type: Fischer rat embryo (RLV/1706) cells, Assay Type: Cell transformation, viral enhanced, Assay Code: CTR+, Evaluation Type: Evaluation A (Pre-1980).
Where [3] appears, read: Species/Cell Type: Human diploid fibroblasts, Assay Type: Unscheduled DNA synthesis (UDS) in vitro, DNA effects, Assay Code: UDH-, Evaluation Type: Evaluation A (Pre-1980).
[4] abbreviates: Species/Cell Type: Mouse (BALB/c-3T3) cells, Assay Type: Cell transformation, Assay Code: CTB-, Evaluation Type: Evaluation A (Pre-1980).
Setting [5] is: Species/Cell Type: Nonhuman, Assay Type: Sister-chromatid exchange (SCE) in vitro, Assay Code: SC2+D, Dose Response: With dose response, Evaluation Type: Evaluation A (Pre-1980).
The mark [6] stands for this setting: Species/Cell Type: Salmonella typhimurium (one or more of the five standard strains: TA98, TA100, TA1535, TA1537, and TA1538), Assay Type: Histidine reverse gene mutation, Ames assay, Assay Code: SAL+*, Activation: With metabolic activation, Evaluation Type: Evaluation A (Pre-1980).
[7] abbreviates: Species/Cell Type: Salmonella typhimurium, Assay Type: Forward and reverse gene mutation, host-mediated assay, Assay Code: HMA+, Evaluation Type: Evaluation A (Pre-1980).
The mark [8] stands for this setting: Species/Cell Type: Chinese hamster lung (V79) cells, Assay Type: Forward gene mutation at the HPRT or ouabain locus, Assay Code: V79+, Evaluation Type: Evaluation A (Pre-1980).
Setting [9] is: Species/Cell Type: Nonhuman, Assay Code: CCGT, Evaluation Type: Evaluation A (Pre-1980).
Setting [10] is: Species/Cell Type: Drosophila melanogaster, Assay Type: Sex-linked recessive lethal gene mutation, Assay Code: SRLT, Evaluation Type: Evaluation A (Pre-1980).
Setting [11] is: Species/Cell Type: Escherichia coli polA (W3119 vs P3478), Assay Type: Rec-assay, DNA effects (bacterial DNA repair), Assay Code: RE1+, Evaluation Type: Evaluation A (Pre-1980).
Setting [12] is: Species/Cell Type: Nonhuman, Assay Code: CCG+, Evaluation Type: Evaluation A (Pre-1980).
Where [13] appears, read: Species/Cell Type: Saccharomyces cerevisiae, Assay Type: Mitotic recombination or gene conversion, Assay Code: YEH+, Evaluation Type: Evaluation A (Pre-1980).
Setting [14] is: Species/Cell Type: Syrian hamster embryo (SHE) cells, Assay Type: Cell transformation, clonal assay, Assay Code: CTC+, Evaluation Type: Evaluation A (Pre-1980).
[15] abbreviates: Species/Cell Type: Vicia faba, Assay Type: Chromosome aberrations, Assay Code: VIC+, Evaluation Type: Evaluation A (Pre-1980).

Calls of active or inactive are those of the source. No rule for the calls is given here.

As to `C/C=C/C=C/C(=O)O`, the mutagenic call (Species/Cell Type: Nonhuman, Assay Type: Sister-chromatid exchange (SCE) in vitro, Assay Code: SC2T, Evaluation Type: Evaluation A (Pre-1980)) was “no conclusion”.
Take `O=C(O)c1ccc2c([N+](=O)[O-])cccc2n1`: the mutagenic call under setting [1] was “active; positive”.
With `Cc1cc(N(C)C)ccc1N=Nc1ccccc1`, the mutagenic call by setting is: (Species/Cell Type: Escherichia coli polA (W3110 vs P3478), Assay Type: Rec-assay, DNA effects (bacterial DNA repair), Assay Code: RE2-, Evaluation Type: Evaluation A (Pre-1980)) “inactive; negative”; (Species/Cell Type: Escherichia coli polA (W3119 vs P3478), Assay Type: Rec-assay, DNA effects (bacterial DNA repair), Assay Code: RE1T, Evaluation Type: Evaluation A (Pre-1980)) “no conclusion”; under setting [2], “active; positive”; under setting [3], “inactive; negative”; under setting [4], “inactive; negative”; under setting [5], “active; positive”. Besides, the mutagenic call (Species/Cell Type: Rat primary hepatocytes, Assay Type: Unscheduled DNA synthesis (UDS) in vitro, DNA effects, Assay Code: UDPT, Evaluation Type: Evaluation A (Pre-1980)) is given as “no conclusion”; the mutagenic call (Species/Cell Type: Saccharomyces cerevisiae, Assay Type: Mitotic recombination or gene conversion, Assay Code: YEH+/-*, Activation: With metabolic activation, Evaluation Type: Evaluation A (Pre-1980)) was “inactive; positive without activation, negative with activation”; the mutagenic call under setting [6] was “active; positive”; the mutagenic call under setting [7] was “active; positive”; the mutagenic call (Species/Cell Type: Syrian hamster embryo (SHE) cells, Assay Type: Cell transformation, clonal assay, Assay Code: CTC-, Evaluation Type: Evaluation A (Pre-1980)) is “inactive; negative”. Further, the call (Species/Cell Type: Nonhuman, Assay Code: CCG+L, Evaluation Type: Evaluation A (Pre-1980)) was “active; positive”.
Take `COCCOC(=O)c1ccccc1C(=O)OCCOC`: the mutagenic call (Species/Cell Type: Rodents, Sex: Male, Assay Type: Dominant lethal test, Assay Code: DLTT, Evaluation Type: Evaluation A (Pre-1980)) is “no conclusion”.
Take `ClCC1OC1CCl` (stereo not drawn): the mutagenic call (Species/Cell Type: Drosophila melanogaster, Assay Type: Sex-linked recessive lethal gene mutation, Assay Code: SRL+, Evaluation Type: Evaluation A (Pre-1980)) was “active; positive”.
Turning to `O=S1OCC2C(CO1)C1(Cl)C(Cl)=C(Cl)C2(Cl)C1(Cl)Cl` (stereo not drawn), for the setting “Species/Cell Type: Mammalian polychromatic erythrocytes, Assay Type: Micronucleus test, chromosome aberrations, Assay Code: MNTT, Evaluation Type: Evaluation B (Post-1980)”, the mutagenic call is “no conclusion”.
Consider `O=C1C=Cc2ccc3c4c(ccc1c24)C(=O)c1ccccc1-3`, for which the mutagenic call reads like this: under setting [8], “active; positive”; (Species/Cell Type: Salmonella typhimurium (one or more of the five standard strains: TA98, TA100, TA1535, TA1537, and TA1538), Assay Type: Histidine reverse gene mutation, Ames assay, Assay Code: SALT, Evaluation Type: Evaluation A (Pre-1980)) “no conclusion”. For the same compound, the call under setting [9] was “no conclusion”.
For the compound `Clc1cc(N2CC2)nc(N2CC2)n1`, the mutagenic call (Species/Cell Type: Aspergillus nidulans, Assay Type: Forward gene mutation, Assay Code: ASF+, Evaluation Type: Evaluation A (Pre-1980)) was “active; positive”.
With `Nc1nc(N)nc(N)n1`, the mutagenic call under setting [10] is recorded as “no conclusion”.
In the case of `CN(C)C(=O)Cl`, the mutagenic call was “active; positive” under setting [11]; “inactive; negative” under setting [3]; “active; positive” (Species/Cell Type: Mammalian polychromatic erythrocytes, Assay Type: Micronucleus test, chromosome aberrations, Assay Code: MNT+, Evaluation Type: Evaluation A (Pre-1980)); “active; positive” (Species/Cell Type: Nonhuman, Assay Type: Sister-chromatid exchange (SCE) in vitro, Assay Code: SC2+D, Dose Response: With dose response, Evaluation Type: Evaluation B (Post-1980)); “active; positive” under setting [13]; “active; positive” under setting [1]. Moreover, the mutagenic call is “active; positive” under setting [7] and “active; positive” under setting [14]. Moreover, the call under setting [12] is “active; positive”.
Regarding `CCN(N=O)c1ccccc1`, the mutagenic call runs as follows: (Species/Cell Type: Fischer rat embryo (RLV/1706) cells, Assay Type: Cell transformation, viral enhanced, Assay Code: CTR-, Evaluation Type: Evaluation A (Pre-1980)) “inactive; negative”; under setting [4], “inactive; negative”; under setting [14], “active; positive”.
With `c1cc2ccc3cc4c(c5ccc(c1)c2c35)[C@H]1O[C@H]1CC4`, the mutagenic call was “active; positive” under setting [8]; “inactive; negative” (Species/Cell Type: Mouse prostate cells, Assay Type: Cell transformation, Assay Code: CTM-, Evaluation Type: Evaluation A (Pre-1980)); “active; positive” under setting [1]. In addition, the call under setting [9] is recorded as “no conclusion”.
On to `COC(=O)/C=C(\C)OP(=O)(OC)OC`, for which the mutagenic call by setting is: (Species/Cell Type: Human, Assay Type: Sister-chromatid exchange (SCE) in vitro, Assay Code: SC1+D, Dose Response: With dose response, Evaluation Type: Evaluation B (Post-1980)) “active; positive”; (Species/Cell Type: Tradescantia species, Assay Type: Chromosome aberrations, Assay Code: TRC+, Evaluation Type: Evaluation A (Pre-1980)) “active; positive”; under setting [15], “active; positive”.
For `CCCCNC(N)=O`, the mutagenic call runs as follows: (Species/Cell Type: Nonhuman, Assay Type: Chromosome aberrations in vitro, Assay Code: CY&-, Evaluation Type: Evaluation A (Pre-1980)) “inactive; negative”; (Species/Cell Type: Nonhuman, Assay Type: Sister-chromatid exchange (SCE) in vitro, Assay Code: SC2+, Evaluation Type: Evaluation A (Pre-1980)) “active; positive”.
Take `CCN(CC)c1ccc(N=Nc2ccccc2C(=O)O)cc1`: the mutagenic call under setting [10] is on record as “no conclusion”.
Turning to `Cc1cc2c(c3ccc4ccccc4c13)CCCC2=O`, the mutagenic call under setting [6] was “active; positive”.
On to `O=S1(=O)CCCO1`, for which the mutagenic call under setting [11] is “active; positive”; the mutagenic call under setting [2] was “active; positive”; the mutagenic call (Species/Cell Type: Hordeum vulgare (barley), Assay Type: Chromosome aberrations, Assay Code: HOC+D, Dose Response: With dose response, Evaluation Type: Evaluation A (Pre-1980)) was “active; positive”; the mutagenic call (Species/Cell Type: Human diploid fibroblasts, Assay Type: Unscheduled DNA synthesis (UDS) in vitro, DNA effects, Assay Code: UDH+D, Dose Response: With dose response, Evaluation Type: Evaluation A (Pre-1980)) was “active; positive”; the mutagenic call under setting [5] was “active; positive”; the mutagenic call (Species/Cell Type: Saccharomyces cerevisiae, Assay Type: Mitotic recombination or gene conversion, Assay Code: YEC+, Evaluation Type: Evaluation A (Pre-1980)) was “active; positive”. Also, the mutagenic call was “active; positive” under setting [13]; “active; positive” under setting [1]; “active; positive” under setting [7]; “active; positive” (Species/Cell Type: Schizosaccharomyces pombe, Assay Type: Reverse gene mutation, Assay Code: YEZ+, Evaluation Type: Evaluation A (Pre-1980)); “active; positive” (Species/Cell Type: Syrian hamster embryo (SA7/SHE) cells, Assay Type: Cell transformation, viral enhanced, Assay Code: CT7+, Evaluation Type: Evaluation A (Pre-1980)); “no conclusion” (Species/Cell Type: Syrian hamster embryo (SHE) cells, Assay Type: Cell transformation, clonal assay, Assay Code: CTCT, Evaluation Type: Evaluation A (Pre-1980)). Also, under setting [15], the mutagenic call was “active; positive”. Besides, the call under setting [12] is “active; positive”.
As to `O[C@@H]1[C@@H]2O[C@@H]2c2cc3c(ccc4ccccc43)cc2[C@H]1O`, the mutagenic call under setting [8] is “active; positive” and the mutagenic call under setting [1] was “active; positive”.
For `CC(=O)OCC[C@H](C=O)c1c(O)cc2c(c1O)C(=O)c1c(O)cc(O)cc1C2=O`, the mutagenic call under setting [6] is “active; positive”.
On to `O=[As](O)(O)O`, for which the mutagenic call reads like this: (Species/Cell Type: Bacillus subtilis (H17 vs M45), Assay Type: Rec-assay, spot test, DNA effects (bacterial DNA repair), Assay Code: REW+, Evaluation Type: Evaluation A (Pre-1980)) “active; positive”; (Species/Cell Type: Human lymphocytes, Assay Type: Sister-chromatid exchange (SCE) in vitro, Assay Code: SCL+, Evaluation Type: Evaluation B (Post-1980)) “active; positive”; (Species/Cell Type: Human, Assay Type: Sister-chromatid exchange (SCE) in vitro, Assay Code: SC1+, Evaluation Type: Evaluation B (Post-1980)) “active; positive”; (Species/Cell Type: Nonhuman, Assay Type: Sister-chromatid exchange (SCE) in vitro, Assay Code: SC2+, Evaluation Type: Evaluation B (Post-1980)) “active; positive”; under setting [14], “active; positive”.
As to `NC1=NC(=O)NC(=O)C1`, the mutagenic call under setting [15] was “active; positive”.
